Entries after “also recorded” stand apart in the source; their conditions may differ.
How the values were obtained:
[1] = test system: HMLEshEcad cells; test: Dose-response viability of HMLEshCntrl vs HMLEshEcad cells (validation of hits, 384-well, Cell-Titer-Glo); assay type: cell-based, human; settings: FIG. 4A; for selective toxicity towards HMLEshEcad cells relative to HMLEshCntrl cells: dose response on retesting
Experimental: (§1) FIG. 4A depicts dose response curves of HMLEshCntrl (A, light gray curve) and HMLEshEcad (A, dark gray curve) cells treated with the 8 compounds identified during the initial screen. 1000 cells of each line were seeded onto 384 well plates and treated with 8 different concentrations of compounds within a 2.5 log range. The cell viability after 3 day treatment was measured by Cell-Titer-Glo. […] FIG. 4B depicts dose response curves of HMLEshCntrl (curve with square data points) and HMLE-Twist (curve with triangular data points) cells treated with the same compounds as in (A). Note that selectivity of Salinomycin, Abamectin, Etoposide and Nigericin (Top, Left-to-Right) is retained even though a different method of EMT induction is used. […] 1 Day after seeding DMSO, Salinomycin (1.25 or 5 μM) or Abamectin (0.25 or 1.25 μM) was added at the indicated concentration. As the GFP vector contains a Blasticidin resistance gene, we used Blasticidin treatment as a positive control for the expansion of GFP-expressing control HMLE cells. After 3 day incubation the mix population of cells were analyzed by flow cytometry and the percentage of GFP-positive cells were determined. […] FIG. 4D depicts dose response curves of transformed HMLERshCntrl (light gray line) and HMLERshEcad (dark gray lines) cells treated with Salinomycin and Abamectin. Dotted line denotes the 50% fraction surviving.
We pursued 8 of the 32 compounds for further study and evaluated their effects across a range of doses.
For each of these compounds, we evaluated the effect on cell viability across a series of doses for sibling cell lines either induced into or not induced into EMT.
Information about the general automated HTS protocol is available online at broad.harvard.edu/chembio/index.html. The assay was initiated by plating 40 μL of medium containing 1000 cells/well into white 384-well opaque-bottom plates (Nunc, Rochester, N.Y.) using an automated plate filler (Bio-Tek μFiller; Winsooki, Vt.) and allowing the cells to adhere for 24 hours. 100 nL of compound stock solutions in dmso was transferred from stock plates into the 384-well assay plates using an automated pin-based compound transfer robot (CyBio CyBi-Well vario; Woburn, Mass.). For most compounds the final concentration in each well was calculated to be 10 uM.
The screen was performed in duplicate. For negative controls, entire dmso-treated control plates were employed, in addition to dmso-only control wells that were incorporated into each compound assay plate. The cells were assayed for luciferase activity with the addition 20 ul of CellTiter-Glo Luminescent Cell Viability Assay solution (Promega). The luminescent signal from each plate was detected using an automated plate reader (Perkin-Elmer Envision 1; Wellesley, Mass.).
Individual compounds were purchased from Sigma and dissolved in DMSO with the exception of nigericin which was dissolved in 100% ethanol. Activity of the compounds were quantified by generating dose-response curves for HMLE-shCntrl, HMLE-shEcad and HMLE-Twist under the same cell density and culture conditions described for the initial screen, using the 384-well plate based system.

[2] = test system: HMLE-Twist cells; test: Co-culture of GFP-expressing HMLE cells and unlabelled HMLE-Twist cells, FACS for GFP positivity; assay type: cell-based, human; settings: FIG. 4C
Experimental: as §1
To examine the effects of salinomycin and abamectin treatment on heterogeneous populations of epithelial cells that have and epithelial cells that have not undergone EMT, we co-mixed GFP-labeled HMLE cells with unlabeled HMLE-Twist cells, treating the resulting co-cultures with compounds. As a positive control for this experiment we treated co-cultures with blasticidin, which selects for the differentiated HMLE-GFP cells, which harbor a blasticidin-resistance gene.
For the mix experiments, unlabelled and GFP-labeled cells were mixed at the indicated ratios and seeded onto 6-well plates. Triplicate wells were then treated with dmso or the compounds (paclitaxel, salinomycin, abamectin and blasticidin) for 48 hrs. The cells were washed with PBS, trypsinized and analyzed by FACS for GFP positivity.

[3] = test system: HMLERshEcad cells; test: Dose response of transformed HMLERshCntrl vs HMLERshEcad cells to screen hits; assay type: cell-based, human; settings: range of concentrations, FIG. 4D
Experimental: as §1

[4] = test system: SUM159, MDA-MB-231 and T47D cells; test: Dose response of breast cancer cell lines differing in CSC marker expression; assay type: cell-based; settings: range of doses, FIG. 5B
Description: FIG. 5A depicts flow cytometry analysis of Sum159, MDA-MB-231 and T47D cell lines with respect to cell surface expression of CD44 and CD24. Note that while the majority of cells in Sum159 and MDA-MB-231 line contain large amounts of CSCs, T47D cells have very few such cells. FIG. 5B depicts dose response curves of Sum159, MDA-MB-231 and T47D cell treated with Salinomycin.
Cancer stem cells are resistant to a wide spectrum of treatments and chemotherapeutics. Since the compounds identified using the described screening approach preferentially target epithelial cells having undergone EMT, we wished to determine whether such compounds might also serve to target cancer stem cells.

[5] = test system: breast CSC and progenitor genes; test: Gene set enrichment analysis of stem-like cell gene sets after treatment; assay type: cell-based; settings: in comparison with paclitaxel treatment, FIG. 16
Description: (§2) Gene set enrichment analysis was used to determine whether three previously reported sets of genes associated with stem-like cells were repressed in response to salinomycin in comparison with paclitaxel treatment. Graphed are the Kolmogorov-Smimov enrichment scores versus Gene ranks based on differential expression. P-values reflecting statistical significance for each analysis are shown.
as §2, with “Kolmogorov-Smirnov” for “Kolmogorov-Smimov”, “shown. The three previously reported gene signatures are: CD44+CD24− IGS (Liu et al., 2007), CD44+CD24− (Shipitsin et al., 2007) and Mammosphere (Dontu et al., 2003). (FIG. 16.)” for “shown.”

Structure (SMILES): CC[C@@H](C(=O)[C@@H](C)[C@@H](O)[C@H](C)[C@@H]1O[C@@H]([C@@H](CC)C(=O)O)CC[C@@H]1C)[C@H]1O[C@]2(C=C[C@@H](O)[C@]3(CC[C@@](C)([C@H]4CC[C@](O)(CC)[C@H](C)O4)O3)O2)[C@H](C)C[C@@H]1C [salinomycin]
- IC50 fold lower for HMLEshEcad cells vs HMLEshCntrl cells ([1]; 3 day treatment, 8 concentrations): ~10 fold
- selective toxicity towards HMLEshEcad cells relative to HMLEshCntrl cells [1]: moderate to strong selectivity; also recorded: strong specificity
- selective toxicity towards HMLEshEcad cells relative to HMLEshCntrl cells ([1]; listed as Salinomycin): selective toxicity
- GFP-positive fraction relative to DMSO-treated controls ([2]; GFP-labeled HMLE + unlabeled HMLE-Twist): increase
- proportion of HMLETwist cells in co-culture with control cells ([2]; Salinomycin 1.25 or 5 μM, Abamectin 0.25 or 1.25 μM): dose-dependent decrease; also recorded: selection against the GFP-negative HMLE-twist cells
- selective toxicity for HMLERshEcad (MT tumorigenic) cells [3]: selectively toxic
- selective toxicity for HMLERshEcad (MT tumorigenic) cells ([3]; listed as Salinomycin): remains
- sensitivity of CSC-enriched SUM159 and MDA-MB-231 relative to CSC-poor T47D cells [4]: positively correlated; also recorded: more sensitive
- expression of clinically relevant breast CSC and progenitor genes [5]: reduces the expression
